Experimental data reported in PubChem BioAssay AID248 (DTP/NCI, 2004).
Toxic doses and inconclusive results are not listed. No stated cut-off is given here; in the data, active means T/C of 150% or more; inactive means T/C below 125%.

System: L1210 leukemia ip in BDF1 mice, survival T/C
Test: NCI In Vivo Anticancer Drug Screen. Data for tumor model L1210 Leukemia (intraperitoneal) in B6D2F1 (BDF1) mice
Conditions: endpoint: mean survival time, higher = longer survival
Outline: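 Mice bearing the transplanted tumor received compound or vehicle. Survival of the treated group was divided by that of the vehicle-treated control group to give the ratio.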

[1] = dose: 100.0 mg/kg/injection, schedule: Q04DX002 (ip), vehicle: saline with Tween-80
[2] = dose: 200.0 mg/kg/injection, schedule: Q04DX002 (ip), vehicle: saline with Tween-80
[3] = dose: 400.0 mg/kg/injection, schedule: Q04DX002 (ip), vehicle: saline with Tween-80
[4] = dose: 100.0 mg/kg/injection, schedule: Q04DX002 (ip), vehicle: saline
[5] = dose: 100.0 mg/kg/injection, schedule: Q04DX002 (ip), vehicle: Klucel (hydroxypropylcellulose) (HPC)
[6] = dose: 200.0 mg/kg/injection, schedule: Q04DX002 (ip), vehicle: Klucel (hydroxypropylcellulose) (HPC)
[7] = dose: 400.0 mg/kg/injection, schedule: Q04DX002 (ip), vehicle: Klucel (hydroxypropylcellulose) (HPC)

Measured: T/C

CCOc1ccc(/C=C2\N=C(c3cccc(Cl)c3)OC2=O)cc1
inactive: [1] 93 % of control | [2] 93 % of control | [3] 96 % of control

C[CH2][Ge]([CH2]C)[CH2]C.C[CH2][Ge]([CH2]C)[CH2]C.C[CH2][Ge]([CH2]C)[O][Ge]([CH2]C)[CH2]C
inactive: [1] 106 % of control | [2] 106 % of control | [3] 116 % of control

COC1(c2ccccc2)C(c2ccccc2)=CC(c2ccccc2)=[N+]1[O-] (stereo not given)
inactive: dose: 75.0 mg/kg/injection, schedule: Q04DX003 (ip), vehicle: saline 92 % of control | dose: 150.0 mg/kg/injection, schedule: Q04DX003 (ip), vehicle: saline 89 % of control | dose: 300.0 mg/kg/injection, schedule: Q04DX003 (ip), vehicle: saline 91 % of control

O=C(Nc1ccccc1F)Oc1cccc(C(F)(F)F)c1
inactive: dose: 25.0 mg/kg/injection, schedule: Q01DX009 (ip), vehicle: saline 103 % of control | dose: 50.0 mg/kg/injection, schedule: Q01DX009 (ip), vehicle: saline 110 % of control | dose: 100.0 mg/kg/injection, schedule: Q01DX009 (ip), vehicle: saline 103 % of control

Cc1ccc(NCCN2CCOCC2)c2c(=O)c3ccccc3sc12
inactive: dose: 9.0 mg/kg/injection, schedule: Q01DX Z (ip), vehicle: methylcellulose (MC) 92 % of control | dose: 14.0 mg/kg/injection, schedule: Q01DX Z (ip), vehicle: methylcellulose (MC) 104 % of control | dose: 21.0 mg/kg/injection, schedule: Q01DX Z (ip), vehicle: methylcellulose (MC) 97 % of control | dose: 32.0 mg/kg/injection, schedule: Q01DX Z (ip), vehicle: methylcellulose (MC) 109 % of control

C/C=C/C=C\COC(=O)C(C)(C)CCC
inactive: dose: 100.0 mg/kg/injection, schedule: Q01DX009 (ip), vehicle: saline with Tween-80 90 % of control | [1] 98 % of control | [4] 96 % of control | dose: 200.0 mg/kg/injection, schedule: Q01DX009 (ip), vehicle: saline with Tween-80 90 % of control | [2] 95 % of control | dose: 200.0 mg/kg/injection, schedule: Q04DX002 (ip), vehicle: saline 103 % of control | dose: 400.0 mg/kg/injection, schedule: Q01DX009 (ip), vehicle: saline with Tween-80 93 % of control | [3] 95 % of control | dose: 800.0 mg/kg/injection, schedule: Q04DX002 (ip), vehicle: saline with Tween-80 95 % of control

NC(CS)=NCCc1nc2ccccc2[nH]1
inactive: [4] 107 % of control

C=C1C(=O)OC2CC(C)C3CC(O)OC(O)C3(C)CC12 (stereo not given)
inactive: dose: 0.39 mg/kg/injection, schedule: Q01DX005 (ip), vehicle: water 108 % of control | dose: 0.78 mg/kg/injection, schedule: Q01DX005 (ip), vehicle: water 108 % of control | dose: 1.56 mg/kg/injection, schedule: Q01DX005 (ip), vehicle: water 106 % of control | dose: 3.13 mg/kg/injection, schedule: Q01DX005 (ip), vehicle: water 106 % of control | dose: 6.25 mg/kg/injection, schedule: Q01DX005 (ip), vehicle: water 104 % of control

COc1cc2ccc3c(c2cc1OC)C(=O)CNC3C (stereo not given)
inactive: dose: 12.5 mg/kg/injection, schedule: Q04DX003 (ip), vehicle: saline 100 % of control | dose: 50.0 mg/kg/injection, schedule: Q04DX003 (ip), vehicle: Klucel (hydroxypropylcellulose) (HPC) 114 % of control | dose: 100.0 mg/kg/injection, schedule: Q04DX003 (ip), vehicle: Klucel (hydroxypropylcellulose) (HPC) 98 % of control | dose: 200.0 mg/kg/injection, schedule: Q04DX003 (ip), vehicle: Klucel (hydroxypropylcellulose) (HPC) 106 % of control | dose: 400.0 mg/kg/injection, schedule: Q04DX003 (ip), vehicle: Klucel (hydroxypropylcellulose) (HPC) 101 % of control

CCOC(=O)C1C(=O)C(=O)N2CCCC12 (stereo not given)
inactive: dose: 100.0 mg/kg/injection, schedule: Q04DX003 (ip), vehicle: saline 107 % of control | dose: 200.0 mg/kg/injection, schedule: Q04DX003 (ip), vehicle: saline 96 % of control | dose: 400.0 mg/kg/injection, schedule: Q04DX003 (ip), vehicle: saline 98 % of control

CC1CCCC(C)[N+]1=C(Nc1cccc(Cl)c1)c1ccccc1 (stereo not given)
inactive: [5] 97 % of control | [6] 106 % of control | [7] 101 % of control

N#Cc1nccc2ccccc12
inactive: [5] 106 % of control | [6] 103 % of control | [7] 100 % of control
